# Source: patent US11111238B2, “Coumarin derivatives, processes for their preparation and uses thereof for the treatment of cancer” (Lead Discovery Center GmbH, priority 2017, dated 2021)
# Key:
# [1] = system: human A2780 ovary carcinoma xenograft; assay: Therapeutic effect on human A2780 ovary carcinoma xenograft in nude mice; assay type: in vivo, nude mice (female NMRI: nu/nu)
# Method: In addition to the number of mice needed to build the groups necessary for the experiment, 8 additional mice were transplanted to have a sufficient number of satellite animals to improve stratification. Mice were stratified at day 7, when the mean tumor volume (TV) was 0.213±0.061 cm^3, (median TV=0.206 cm^3) into groups A-D with 8 mice each. 8 mice were excluded because of their tumor size.
# Immediately before use, compound 14 was dissolved to obtain an injection solution to be sufficient for one week of treatment. The treatments were indicated as described in Table 6. […] Mean tumor […]±S.D. (RTV) was calculated. […] Mice of groups A, C and D were sacrificed at day 34 (QDx28 for times 28. Gross autopsy was performed from all mice.
# [2] = system: SW403 (colon); assay: CellTiter GLO viability assay, SW403; assay type: cell-based; conditions: Homo sapiens, SW-403, 144 h, read-out: IC50 (μM) incubation time 144 h
# Method: (§1) The CellTiter-Glo Luminescent Cell Viability Assay (Promega) is a homogeneous method of determining the number of viable cells in culture. It is based on quantification of ATP, indicating the presence of metabolically active cells.
# […] After incubation for 3 h in humidified chambers at 37° C./5% CO2 compounds/DMSO were added at different concentrations. […] Cells treated with the compound vehicle DMSO were used as positive controls and cells treated with 10 μM Staurosporine served as negative controls. […] Thereon, mixture and assay plates were equilibrated at room temperature for 20 min. Equal volumes of the reagent-medium-mixture was added to the volume of culture medium present in each well.
# (§2) The plates were mixed at ˜200 rpm for 2 minutes on an orbital shaker. The microplates were then incubated at room temperature for 10 minutes for stabilization of the luminescent signal. Following incubation the luminescence is recorded on a Victor microplate reader (Perkin Elmer) using 200 ms integration time. The data were then analyzed with Excel using the XLFIT Plugin (dose response Fit 205) for IC50-determination. As quality control the Z′-factor was calculated from 16 positive and negative control values. Only assay results showing a Z′-factor≥0.5 were used for further analysis.
# [3] = system: SW48 (colon); assay: CellTiter GLO viability assay, SW48; assay type: cell-based; conditions: Homo sapiens, 144 h, read-out: IC50 (μM) incubation time 144 h
# Method: as §1
# Cells were seeded on day 1 at cell numbers that assure assay linearity and optimal signal intensity. After incubation for 3 h in humidified chambers at 37° C./5% CO2 compounds/DMSO were added at different concentrations. […] Cells treated with the compound vehicle DMSO were used as positive controls and cells treated with 10 μM Staurosporine served as negative controls. […] Thereon, mixture and assay plates were equilibrated at room temperature for 20 min. Equal volumes of the reagent-medium-mixture was added to the volume of culture medium present in each well.
# as §2
structure (smiles),measurement,setting,value
"C[C@@H](Oc1ccc2c(-c3ccc(F)cc3Cl)cc(=O)oc2c1)C(=O)N1CCC[C@H](C(=O)O)C1 [Compound 14, (3S)-1-[(2R)-2-[4-(2-chloro-4-fluoro-phenyl)-2-oxo-chromen-7-yl]oxypropanoyl]piperidine-3-carboxylic acid]",Mean tumor weight,[1]; 30 mg/kg p.o. QD × 21,0.629 g
same,RTV (relative tumor volume at day 27 compared to D 7),[1]; 30 mg/kg p.o. QD × 21,6.8
same,"Tumor weight, % of control",[1]; 30 mg/kg p.o. QD × 21,(75.5) %
same,Tumor growth inhibition (D 27): Mean TV,"[1]; 30 mg/kg p.o. QD × 21, day 27",1.300 cm^3
same,optimum T/C value,[1]; 50 mg/kg,88.3%
same,optimum T/C value,[1]; 100 mg/kg,59.2%
same,Mean tumor weight,[1]; 100 mg/kg p.o. QD × 28,0.491 g
same,RTV (relative tumor volume at day 27 compared to D 7),[1]; 100 mg/kg p.o. QD × 28,5.1
same,"Tumor weight, % of control",[1]; 100 mg/kg p.o. QD × 28,"(60,0) %"
same,Tumor growth inhibition (D 27): Mean TV,"[1]; 100 mg/kg p.o. QD × 28, day 27",0.715 cm^3
same,optimum T/C value,[1]; 200 mg/kg,24.9%
same,Mean tumor weight,[1]; 200 mg/kg p.o. QD × 28,0.141 g
same,RTV (relative tumor volume at day 27 compared to D 7),[1]; 200 mg/kg p.o. QD × 28,1.1
same,"Tumor weight, % of control",[1]; 200 mg/kg p.o. QD × 28,(16.99) %
same,Tumor growth inhibition (D 27): Mean TV,"[1]; 200 mg/kg p.o. QD × 28, day 27",0.232 cm^3
same,Tolerability,"[1]; A2780 xenograft, p.o. QD",well tolerated
same,Therapeutic effect: tumor growth inhibition,[1]; all doses,dose-dependent tumor growth inhibition
same,Therapeutic effect: tumor growth inhibition,[1]; higher doses (100 and 200 mg/kg),significantly more active regarding tumor growth inhibition
same,Therapeutic effect: tumor growth inhibition,[1]; lowest dose (50 mg/kg),no significant effect
same,Autopsy at the end,"[1]; mouse, in vivo",no abnormal observations
same,signs of toxicity,"[1]; mouse, in vivo, po",no signs of toxicity were observed
same,IC50,[2],≤ 0.1 µM
same,IC50,[3],0.1 to 1 µM
